Key:
[1] = target: T1, HBV polymerase (Hepatitis B virus genotype A2 subtype adw2, UniProt P03159); assay: In vitro reverse transcription activity of HBV polymerase (ELISA-type, DIG/biotin nucleotides); format: biochemical; conditions: for inhibition at 0.01 µg/mL / inhibition at 0.1 µg/mL / inhibition at 1 µg/mL: read-out: Inhibition activity on HBV-RT (%)
T1 construct: made in house; host or cells: E. coli
Experimental: The following in vitro experiment was performed to determine the effect of the compounds of formula 1 on the activity of HBV polymerase during reverse transcription.
The present inventors submitted application for a patent concerning HBV polymerase genetically expressed in and separated from E. coli, the process of its preparation, and the method to measure the enzyme activities (KR 94-3918, KR 96-33998). In the present experiments HBV polymerase was used which had been expressed in E. coli as stated above.
The method used in the present invention to measure in vitro reverse transcribing activities of HBV polymerase is as follows. Basic principles are the same as for ELISA. Nucleotides with biotin or digoxigenin group attached are included as substrates and anti-DIG antibodies attached to peroxidase enzyme recognize the polymerized substrates.
To the wells coated with streptavidin, 20 μl of HBV polymerase, 20 μl of reaction mixture (10 μM each of DIG-UTP and Biotin-UTP, 46 mM Tris-HCl, 266 mM KCl, 27.5 mM MgCl2, 9.2 mM DTT substrate/primer hybrid), and 20 μl of test compound (added to 1, 0.1, and 0.01 μg/ml) were added and allowed to react a 22° C. for 15 hrs. During this reaction, HBV polymerase catalyzes DNA synthesis and digoxigenin and biotin attached to nucleotides form bonds with streptavidin coated on the bottom of wells. When the reaction was done, each well was washed with 250μl of cleaning buffer (pH 7.0) for 30 seconds, which was repeated five times to remove remaining impurities. 200 μl of anti-DIG-POD antibody was added to each well and allowed to react for 1 hr at 37° C., and the wells were washed with cleaning buffer to remove impurities. 200μl each of ABTS™, a substrate of peroxidase, was then added and allowed to react at room temperature for 30 min. Absorbance was measured at 405 nm using ELISA reader.
The percentage of reduction in HBV polymerase activities for reverse transcription was calculated using the group without test compound as a control and the results are shown in Table 3.

[2] = system: HBV; assay: Inhibition of HBV proliferation in HBV producing cell line HepG 2.2.15 (competitive PCR of culture supernatant); format: cell-based, Hepatitis B virus; conditions: HepG 2.2.15, one week; for inhibition at 0.01 µg/mL / inhibition at 0.1 µg/mL / inhibition at 1 µg/mL: Hepatitis B virus, HepG2.2.15, 168 h, read-out: Inhibitory effect on the HBV proliferation, Inhibition activity on HBV-RT (%)
Experimental: The following experiment was performed to determine inhibitory effects of compounds of formula on the proliferation of HBV producing cell line.
To test for antiviral effect, replication and proliferation of HBV were measured in HepG 2.2.15, a human liver cancer cell line.
The cell concentration was adjusted to 1×10^5 cells/ml and 1 ml was added to each well of a 24-well cell culture plate, which was then kept in a culture box for 3-4 days at 37° C. under 5% CO2 until cells grew sufficiently, changing culture medium everyday. When the cells matured sufficiently, the test compounds were added to the final concentrations of 0.01, 0.1, and 1 μg/ml. One week after the addition of test compounds, he culture solution was centrifuged at 5,000 rpm for 10 min. 25 μl of supernatant was transferred to a new tube and 5 μl of lysis solution [0.54N NaOH, 0.06% NP40] was added to each tube. After keeping the tube at 37° C. for 1 hr, 30 μl . of neutralizing solution [0.09NHCl, 0.1MTris-HCl, pH7.4] was added as a reaction solution for competitive polymerase chain reaction (PCR).
PCR was performed using genetic sequence of HBV core protein as a matrix. PCR reaction was carried out by adding 1 unit of Taq polymerase enzyme to 25 pmol of each primer, 250 μM dNTP, 5 μl of PCR reaction solution [0.54N NaOH, 0.06% NP40, 0.09N HCl, 0.1M Tris-HCl, pH 7.4].
DNA polymerized by PCR was electrophoresed on Agarose gel and quantitatively analyzed using an image analyzer (Gel Dcc 1000, Bio-Rad) in order to evaluate the effect of compounds of the present invention on the reduction of HBV proliferation.
3TC (lamivudine) was used as a positive control at the same concentrations as those of the test compounds. The percentage of reduction in HBV proliferation was calculated using the group without test compound as a control and the results are represented in Table 4.

[3] = target: T2, HIV reverse transcriptase (Human immunodeficiency virus type 1 group M subtype B, UniProt P04585); assay: In vitro HIV reverse transcriptase activity (non-radioactive reverse transcriptase assay kit); format: biochemical
T2 construct: activities of HIV reverse transcriptase; purchased Boehringer Mannheim
Experimental: The following in vitro experiments were done to determine the effect of compounds of formula 1 on the reduction of HIV enzyme activities in reverse transcription.
Non-radioactive reverse transcriptase assay kit (Boehringer Mannheim) was used in the measurement of in vitro transcriptase activities. 20 μl (40 ng) of HIV transcriptase and 20 μl of reaction mixture containing matrix-primer hybrid poly (A) oligo (dT) 15, DIG(digoxigenin)-dUTP, biotin-dUTP, and TTP were added to wells coated with streptavidin. Test compounds were also added at the final concentrations of 0.1 and 1 μg/ml and allowed to react at 37° C. for 1 hr. At this time, DNA is formed from RNA by the action of HIV transcriptase, forming bonds with streptavidin coated on the bottom of wells because of digoxigenin and biotin moieties attached to nucleotides.
When the reaction was completed, each well was washed with 250 μl. of cleaning buffer (pH 7.0) for 30 sec. five times to remove remaining impurities. 200 μl of anti-DIG-POD […] was added to each well, allowed to react at 37° C. for 1 hr and washed as above to remove impurities. 200 μl of ABTS™, a substrate for peroxidase, was added to each well and allowed to react at room temperature for 30min. Absorbance at 405 nm was then read for each solution using ELISA reader and used for quantitative determination of inhibitory effect on the HIV transcriptase activities. The percentage of reduction in the activities of HIV reverse transcriptase was calculated using the group without test compound as control and the results are represented in Table 5.

T1 sequence (P03159 whole entry): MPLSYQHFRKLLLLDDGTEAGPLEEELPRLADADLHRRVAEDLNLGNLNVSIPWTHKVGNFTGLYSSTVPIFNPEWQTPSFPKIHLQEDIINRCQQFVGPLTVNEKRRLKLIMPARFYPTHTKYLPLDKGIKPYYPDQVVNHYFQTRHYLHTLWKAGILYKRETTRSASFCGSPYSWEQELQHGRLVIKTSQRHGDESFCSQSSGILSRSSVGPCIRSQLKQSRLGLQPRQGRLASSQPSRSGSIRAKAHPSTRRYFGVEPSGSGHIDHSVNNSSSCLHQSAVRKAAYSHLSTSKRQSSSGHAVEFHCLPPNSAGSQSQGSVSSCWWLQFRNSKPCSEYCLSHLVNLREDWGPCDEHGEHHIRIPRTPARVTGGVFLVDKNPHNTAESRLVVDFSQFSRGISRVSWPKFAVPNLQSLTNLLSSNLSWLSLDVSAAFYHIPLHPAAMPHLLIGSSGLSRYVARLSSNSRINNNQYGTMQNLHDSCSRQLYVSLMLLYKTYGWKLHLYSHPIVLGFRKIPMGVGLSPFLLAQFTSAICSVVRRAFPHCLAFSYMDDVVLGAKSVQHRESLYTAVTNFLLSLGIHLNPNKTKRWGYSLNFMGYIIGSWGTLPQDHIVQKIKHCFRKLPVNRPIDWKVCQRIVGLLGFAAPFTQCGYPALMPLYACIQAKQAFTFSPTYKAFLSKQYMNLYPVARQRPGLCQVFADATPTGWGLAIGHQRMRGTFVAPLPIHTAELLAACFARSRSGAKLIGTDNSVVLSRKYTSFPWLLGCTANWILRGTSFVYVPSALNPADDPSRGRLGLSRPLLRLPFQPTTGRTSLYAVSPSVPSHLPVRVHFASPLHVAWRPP

Structure (SMILES)	inhibition at 0.01 µg/mL ([1]; 0.01 μg/ml test compound) [%]	inhibition at 0.1 µg/mL ([1]; 0.1 μg/ml test compound) [%]	inhibition at 1 µg/mL ([1]; 1 μg/ml test compound) [%]	inhibition at 0.01 µg/mL ([2]; 0.01 μg/ml) [%]	inhibition at 0.1 µg/mL ([2]; 0.1 μg/ml) [%]	inhibition at 1 µg/mL ([2]; 1 μg/ml) [%]	Inhibitory effect on the activities of HIV reverse transcriptase, Inhibition activity on HBV-RT (%) ([3]; 0.1 μg/ml test compound)	other results
CSc1ncc(C(N)=O)c(Nc2ccc3cn[nH]c3c2)n1 [Example 2, 4-(1H-6-Indazolylamino)-2-methylthio-5-pyrimidinecarboxamide]	36	55	85	20	40	70	–	–
CSc1ncc(C(=O)NN2CCN(C)CC2)c(Nc2ccc3cn[nH]c3c2)n1 [Example 22, 4-(1H-6-indazolylamino)-N-(4-methyl-1-piperazinyl)2-methylthio-5-pyrimidinecarboxamide]	28	46	72	–	–	–	–	melting point: 244 to 247 °C
COCCNC(=O)c1cnc(SC)nc1Nc1ccc2[nH]ncc2c1 [Example 13, 4-(1H-5-indazolylamino)-N-(2-methoxyethyl)-2-methylthio-5-pyrimidinecarboxamide]	13	40	58	–	–	–	–	–
CC[C@H](CO)NC(=O)c1cnc(SC)nc1Nc1ccc2[nH]ncc2c1 [Example 11]	–	–	–	–	–	–	–	Inhibition activity on HBV-RT (%) ([1]; 0.01 μg/ml test compound): 44%; Inhibition activity on HBV-RT (%) ([1]; 0.1 μg/ml test compound): 59%; Inhibition activity on HBV-RT (%) ([1]; 1 μg/ml test compound): 82%
CCNC(=O)c1cnc(SC)nc1Nc1ccc2[nH]ncc2c1 [Example 5, N-ethyl-4-(1H-5-Indazolylamino)-2-methylthio-5-pyrimidinecarboxamide]	20	52	70	–	–	–	57	Inhibition of HIV reverse transcriptase activity ([3]; 1 μg/ml test compound): 80%
CSc1ncc(C(=O)NN2CCOCC2)c(Nc2ccc3[nH]ncc3c2)n1 (hydrate or solvate) [Example 35, 4-(1H-5-indazolylamino)-2-methylthio-N-(4-morpholinyl)-5-pyrimidinecarboxamide]	–	–	–	–	–	–	–	melting point: 239 to 242 °C
CSc1ncc(C(=O)NCCO)c(Nc2ccc3[nH]ncc3c2)n1 [Example 7, N-(2-Hydroxyethyl)-4-(1H-5-indazolylamino)-2-methylthio-5-pyrimidinecarboxamide]	48	76	93	21	61	92	–	–
CSc1ncc(C(=O)N(C)CCO)c(Nc2ccc3[nH]ncc3c2)n1 [Example 9, N-hydroxyethyl-N-methyl-4-(1H-5-indazolylamino)-2-methylthio-5-pyrimidine Carboxamide]	30	54	75	20	48	65	52	Inhibition of HIV reverse transcriptase activity ([3]; 1 μg/ml test compound): 84%
CC[C@H](CO)NC(=O)c1cnc(SC)nc1Nc1ccc2cn[nH]c2c1 [Example 12, N-[(1R)-1-(hydroxymethyl)propyl]-4-(1H-6-indazolylamino)-2-methylthio-5-pyrimidinecarboxamide]	36	55	85	–	–	–	–	–
CSc1ncc(C(=O)N(C)CCO)c(Nc2ccc3cn[nH]c3c2)n1 [Example 10, N-hydroxyethyl-N-methyl-4-(1H-6-indazolylamino)-2-methylthio-5-pyrimidinecarboxamide]	22	48	70	–	–	–	47	Inhibition of HIV reverse transcriptase activity ([3]; 1 μg/ml test compound): 80%
CSc1ncc(C(N)=O)c(Nc2ccc3[nH]ncc3c2)n1 [Example 1, 4-(1H-5-Indazolylamino)-2-methyl thio-5-pyrimidinecarboxamide]	–	–	–	–	–	–	44	Inhibitory effect on the activities of HIV reverse transcriptase, Inhibition activity on HBV-RT (%) ([3]; 1 μg/ml test compound): 65%; Inhibition activity on HBV-RT (%) ([1]; 0.01 μg/ml test compound): 40%; Inhibition activity on HBV-RT (%) ([1]; 0.1 μg/ml test compound): 63%; Inhibition activity on HBV-RT (%) ([1]; 1 μg/ml test compound): 90%; Inhibitory effect on the HBV proliferation, Inhibition activity on HBV-RT (%) ([2]; 0.01 μg/ml): 25%; Inhibitory effect on the HBV proliferation, Inhibition activity on HBV-RT (%) ([2]; 0.1 μg/ml): 53%; Inhibitory effect on the HBV proliferation, Inhibition activity on HBV-RT (%) ([2]; 1 μg/ml): 82%
CSc1ncc(C(=O)NC2CC2)c(Nc2ccc3cn[nH]c3c2)n1 [Example 6, N-cyclopropyl-4-(1H-6-Indazolylamino)-2-methylthio-5-pyrimidinecarboxamide]	24	43	74	–	–	–	54	Inhibition of HIV reverse transcriptase activity ([3]; 1 μg/ml test compound): 78%
CSc1ncc(C(=O)NN2CCOCC2)c(Nc2ccc3[nH]ncc3c2)n1 [Example 35, 4-(1H-5-indazolylamino)-2-methylthio-N-(4-morpholinyl)-5-pyrimidinecarboxamide]	46	61	90	29	50	86	–	–
Nc1ccn([C@@H]2CS[C@H](CO)O2)c(=O)n1 [Example 3TC, lamivudine, reference compound]	–	–	–	48	80	99	–	–
CSc1ncc(C(=O)NCCN2CCOCC2)c(Nc2ccc3cn[nH]c3c2)n1 [Example 20]	–	–	–	–	–	–	50	Inhibitory effect on the activities of HIV reverse transcriptase, Inhibition activity on HBV-RT (%) ([3]; 1 μg/ml test compound): 89%; Inhibition activity on HBV-RT (%) ([1]; 0.01 μg/ml test compound): 12%; Inhibition activity on HBV-RT (%) ([1]; 0.1 μg/ml test compound): 40%; Inhibition activity on HBV-RT (%) ([1]; 1 μg/ml test compound): 67%

— patent US6762189B1, “5-pyrimidinecarboxamide derivatives and the pharmaceutical compositions containing said derivatives” (Dong Wha Pharm. Ind. Co., Ltd., priority 1999, dated 2004)
